US10172857B2, “Boosting the effect of methotrexate through the combined use with lipophilic statins” (Dalana3, S.L., priority 2013, dated 2019)

Experiments:
Format in all cases: cell-based, human
HOS cells [1] = assay: Analysis of the cell cycle by flow cytometry (PI); settings: for changes in the distribution of the cell cycle (summary): FIGS. 11-15; for changes in the cell cycle with increasing doses: MTX 10-200 nM or SV 0.2-10 μM
Protocol: In order to analyse the changes in the distribution of the cell cycle the cells are seeded and treated under the same conditions employed with the Annexin V dye. The treated and untreated cells are resuspended in NP-40 at 1% dissolved in PBS additionally containing 50 μg/mL PI at a density of 3×10^5 cells/sample. The analysis and quantification of each of the experimental conditions is then carried out after 15 minutes incubation in the dark and at ambient temperature, following the same methodology as employed in the apoptosis experiments with Annexin-V staining (FACSCalibur flow cytometry and Cell Quest software).

osteosarcoma cells (HOS) = assay: Cell viability test, trypan blue staining and counting in Neubauer chamber; settings: for morphological changes: 0.5 μM simvastatin, 50 nM methotrexate or both, 48 and 72 hours; for effect on cell proliferation and cell death (trypan blue counts): FIGS. 6-10
Protocol: The HOS cells are cultivated in a culture medium supplemented with 5-10% heat-inactivated foetal bovine serum and 2 mM of L-glutamine, at 37° C., 95% humidity and 5% atmospheric CO2. The cells are treated with 0.5 μM of simvastatin and with 50 nM of MTX for 24, 48 and 72 hours. The cells are collected by trypsinization. This involves first aspirating the cultivation medium; the cells are then washed with 2-3 mL of PBS (sterile); add 0.5-1 mL of trypsin-EDTA solution (sterile); incubated at 37° for 5 minutes; the cells are collected with 5 mL of fresh culture medium; and the suspension is placed in a sterile 15 mL tube. The trypan blue dye is used in order to determine cell viability. Trypan blue is a colloid that enters the cells through breaks in the cell membrane. Therefore, the cells that appear in the image, clearly stained blue, are considered to be non-viable. For the measurement, mix 50 μL of the trypan blue solution and 50 μL of cell suspension are placed in a 1.5 mL tube. The mixture is homogenised and 10 μL placed in a Neubauer chamber. The total cells and the non-viable cells (completely stained blue) are counted.

HOS cells [2] = assay: Apoptosis testing by flow cytometry (SubG0 peak); settings: 48 hours
[3] = HOS cells, SV 1 μM alone, 24 hours

Row | SMILES | changes in the distribution of the cell cycle (summary) (HOS cells [1]) | changes in the cell cycle with increasing doses (HOS cells [1]; HOS cells, 24 hours) | morphological changes (osteosarcoma cells (HOS)) | effect on cell proliferation and cell death (trypan blue counts) (osteosarcoma cells (HOS)) | MTX concentration at incipient appearance of the SubG0 peak (cell death by apoptosis) (HOS cells [2]; MTX 10-200 nM tested) [NM] | number of cells quantified in the SubG0 phase (HOS cells [2]; doses above 50 nM of MTX) | decrease of the G1 phase compared to the control (HOS cells [1]; [3]) [%] | increase of cells in the G2/M phase compared to the control (HOS cells [1]; [3]) [%] | SV concentration at appearance of the SubG0 peak (cell death by apoptosis) (HOS cells [2]; SV 0.2-10 μM tested) [µM] | SV concentration at maximum of the SubG0 peak (HOS cells [2]; SV 0.2-10 μM tested) [µM] | number of cells quantified in the SubG0 phase (HOS cells [2]; doses above 0.2 μM SV)
1 | CN(Cc1cnc2nc(N)nc(N)c2n1)c1ccc(C(=O)N[C@@H](CCC(=O)O)C(=O)O)cc1 [MTX, (2S)-2-[(4-{[(2,4-diaminopteridin-6-yl)methyl](methyl)amino}benzoyl)amino]pentanedioic acid] | halt in the cycle in phase G1 | decrease in the S phase and in the number of cells in phase G2/M, with subsequent accumulation in the phase G1 | enlarged cells and even those with two nuclei | preferentially acts to slow cell proliferation | 20 | significant increase | – | – | – | – | –
2 | CCC(C)(C)C(=O)O[C@H]1C[C@@H](C)C=C2C=C[C@H](C)[C@H](CC[C@@H]3C[C@@H](O)CC(=O)O3)[C@H]21 [SV, simvastatin] | halts the cycle in phase G2/M | decrease in the S phase and in the number of cells in phase G1 is notable, with subsequent accumulation in the phase G2/M | rounded cells | predominant effect on the induction of cell death | – | – | 19.60 | 40.92 | < 0.2 | 10 | notable increase
